From publication PMC7450057, “Enhancing intracellular accumulation and target engagement of PROTACs with reversible covalent chemistry” (Nature Communications, 2020)
Where “and” joins values, the source holds several entries; their conditions need not be identical. Equal values may be shown once.

Tests used:
MOLM-14 cells = test: AlamarBlue cell viability assay, MOLM-14; conditions: for IC50: Homo sapiens, MOLM-14, 72 h, read-out: Cell viability IC50, MOLM-14 cells, 72 h, Alamar Blue; for Cell viability, MOML-14: Supplementary Figure 7, replicates; for MOLM-14 Cell Viability%: Figure 2f, 5 replicates
Experimental: (§2) The IC50 was calculated using GraphPad Prism software with a four-parameter dose-response curve fit.

Mino = test: IC50 in MCL cell lines (Supplementary Table 2), Mino; conditions: for Cell Viability (%): Mino cells, replicate wells; for IC50: Mino, triplicates
Maver-1 = test: IC50 in MCL cell lines (Supplementary Table 2), Maver-1; conditions: for IC50: Maver-1, triplicates; for Cell Viability (%): Maver-1 cells, replicate wells
C481S mutant BTK = target: T1, C481S mutant BTK (Homo sapiens, UniProt Q06187, C481S); test: BTK degradation in XLA cells overexpressing C481S mutant BTK (western blot); format: cell-based; conditions: 24 h
T1 construct: expressed in transfected cells; host or cells: XLA cells (gift from Dr. Woyach)
T1 sequence (Q06187 whole entry C481S): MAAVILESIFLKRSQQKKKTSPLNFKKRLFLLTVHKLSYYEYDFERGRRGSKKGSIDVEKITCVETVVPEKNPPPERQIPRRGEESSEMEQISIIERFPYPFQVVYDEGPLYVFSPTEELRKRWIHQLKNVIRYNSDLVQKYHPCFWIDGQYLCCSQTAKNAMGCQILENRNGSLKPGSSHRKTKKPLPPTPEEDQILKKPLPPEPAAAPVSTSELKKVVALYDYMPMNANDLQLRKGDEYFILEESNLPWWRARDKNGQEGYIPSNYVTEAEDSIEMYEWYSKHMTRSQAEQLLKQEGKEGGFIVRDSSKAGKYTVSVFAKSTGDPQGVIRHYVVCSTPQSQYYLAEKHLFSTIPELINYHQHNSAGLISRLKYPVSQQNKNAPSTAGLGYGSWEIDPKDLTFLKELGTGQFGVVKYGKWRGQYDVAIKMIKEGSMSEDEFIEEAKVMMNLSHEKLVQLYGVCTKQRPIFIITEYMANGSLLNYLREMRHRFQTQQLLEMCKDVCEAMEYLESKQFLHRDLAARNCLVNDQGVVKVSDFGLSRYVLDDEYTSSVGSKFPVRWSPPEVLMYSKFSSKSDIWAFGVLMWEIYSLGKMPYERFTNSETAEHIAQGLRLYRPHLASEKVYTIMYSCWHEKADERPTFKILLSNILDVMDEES
Experimental: XLA cells overexpressing wild-type BTK or mutant C481S BTK were plated at the same cell number and density as the above experiments and were treated with RC-1, IRC-1, or RNC-1 at the dose of 1.6, 8.0, 40, 200, and 1000 nM for 24 h. After completion of treatment, all the cells were collected and processed for western blot analysis.
(§1) The collected cells and spleen tissues were lysed in RIPA lysis buffer (50 mM Tris-HCl, pH 7.4, 150 mM NaCl, 1% NP-40, 0.5% sodium deoxycholate, 0.1% SDS) supplemented with Halt™ Protease and Phosphatase Inhibitor Cocktail (Thermo Fisher Scientific, Cat. No. PI78440) immediately before use. Lysates were centrifuged at 15,000 × g for 10 min at 4 °C and the supernatant was quantified for total protein concentration using the Pierce BCA Protein Assay (Thermo Fisher Scientific, Cat. No. 23225). Thirty micrograms of protein were loaded onto sodium dodecyl sulfate−polyacrylamide gel for electrophoresis (Bio-Rad) and transferred onto PVDF membranes (Millipore, Cat. No. IPVH00010). […] Imaging was performed using the ECL Prime chemiluminescent western blot detection reagents (GE Healthcare, Cat. No. RPN2232) by visualization of the blots to X-Ray film or with an Imager (Kindle Biosciences, Cat. No. D1001). All western blots were subsequently processed and quantified with Imager software. Protein level was normalized to β-actin or GAPDH loading controls.

BTK = BTK (Mus musculus, UniProt P35991); test: BTK degradation in mouse B-cell lymphoma cell line derived from Eu-Myc mice; format: cell-based; parameters: endogenous in cells; host or cells: B cell lymphoma cell line derived from Eu-Myc mice; conditions: Supplementary Figure 10, replicates, DMSO about 100
Sequence of BTK (P35991 whole entry): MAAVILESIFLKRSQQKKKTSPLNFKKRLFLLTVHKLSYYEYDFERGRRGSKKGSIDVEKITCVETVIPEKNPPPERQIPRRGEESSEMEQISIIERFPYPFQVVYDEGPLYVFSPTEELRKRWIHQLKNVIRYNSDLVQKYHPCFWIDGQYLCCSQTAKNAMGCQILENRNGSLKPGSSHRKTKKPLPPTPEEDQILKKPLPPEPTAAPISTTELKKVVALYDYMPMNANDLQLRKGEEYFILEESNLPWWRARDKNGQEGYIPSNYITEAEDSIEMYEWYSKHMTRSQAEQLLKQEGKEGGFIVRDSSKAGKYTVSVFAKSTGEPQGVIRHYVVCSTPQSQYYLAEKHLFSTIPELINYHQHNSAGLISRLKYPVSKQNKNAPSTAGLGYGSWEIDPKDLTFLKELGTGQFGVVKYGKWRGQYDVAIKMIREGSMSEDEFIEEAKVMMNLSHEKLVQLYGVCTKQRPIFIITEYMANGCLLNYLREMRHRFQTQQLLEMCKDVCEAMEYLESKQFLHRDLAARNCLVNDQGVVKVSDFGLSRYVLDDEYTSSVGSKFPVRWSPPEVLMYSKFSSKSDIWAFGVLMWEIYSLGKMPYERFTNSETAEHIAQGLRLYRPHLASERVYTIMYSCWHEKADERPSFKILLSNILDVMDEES
Experimental: MOLM-14 cell line was obtained from Dr. Conneely at Baylor College of Medicine, and the Mino cells were purchased from the American Type Culture Collection (ATCC, Cat. No. CRL-3000). Both cell lines were cultured in RPMI 1640 medium (Thermo Fisher Scientific, Cat. No. MT10040CV) supplemented with 10% fetal bovine serum (GE Healthcare, Cat. No. SH30071.03) and 1% Pen/Strep (Thermo Fisher Scientific, Cat. No. 15140163). The wild-type and C481S BTK XLA cell lines were gifts from Dr. Woyach at The Ohio State University and were cultured in RPMI 1640 medium with 15% fetal bovine serum, 1% Pen/Strep, and 1.0 µg/ml puromycin (Thermo Fisher Scientific, Cat. No. A1113803). HEK 293T/17 cells were purchased from ATCC (Cat. No. CRL-11268) were maintained in DMEM (Thermo Fisher Scientific, Cat. No. MT10013CV) with 10% fetal bovine serum and 1% Pen-Strep. The B cell lymphoma cell line derived from Eu-Myc mice was a gift from Dr. Yulin Li at Houston Methodist Research Institute and cultured in RPMI 1640 medium supplemented with 15% (v/v) fetal bovine serum (FBS), 100 U/mL penicillin, 100 μg/mL streptomycin, and 0.05 mM beta-mercaptoethanol and puromycin (1 μg/mL). Cells were grown at 37 °C with 5% CO2.
as §1

Mino cells = test: AlamarBlue cell viability assay, Mino; format: cell-based; conditions: for Mino Cell Viability%: Figure 2f, 5 replicates
Experimental: as §2

SMILES	IC50 (MOLM-14 cells)	Cell viability, MOML-14 (MOLM-14 cells; drug concentration 1.00E-05 M)	Cell viability, MOML-14 (MOLM-14 cells; drug concentration 1.60E-08 M)	Cell viability, MOML-14 (MOLM-14 cells; drug concentration 2.00E-06 M)	Cell viability, MOML-14 (MOLM-14 cells; drug concentration 3.20E-09 M)	Cell viability, MOML-14 (MOLM-14 cells; drug concentration 4.00E-07 M)	Cell viability, MOML-14 (MOLM-14 cells; drug concentration 6.40E-10 M)	Cell viability, MOML-14 (MOLM-14 cells; drug concentration 8.00E-08 M)	Cell Viability (%) (Mino; 1.25E-06 M)	Cell Viability (%) (Mino; 1.56E-07 M)	Cell Viability (%) (Mino; 2.50E-06 M)	Cell Viability (%) (Mino; 3.13E-07 M)	Cell Viability (%) (Mino; 5.00E-06 M)	Cell Viability (%) (Mino; 6.25E-07 M)	Cell Viability (%) (Mino; 7.81E-08 M)	IC50 (Mino)	IC50 (Maver-1)	Cell Viability (%) (Maver-1; 1.25E-06 M)	Cell Viability (%) (Maver-1; 1.56E-07 M)	Cell Viability (%) (Maver-1; 2.50E-06 M)	also measured
CN1C(=O)CCC(N2C(=O)c3cccc(NCC(=O)NCCCN(C)C(C)(C)C=C(C#N)C(=O)N4CCCC(n5nc(-c6ccc(Oc7ccccc7)cc6)c6c(N)ncnc65)C4)c3C2=O)C1=O (stereo not shown) [RC-1-Me]	210 nM	5.925 and 2.684 and 5.158 and 0.5402 and 1.464	108.445 and 78.2274 and 85.8427 and 61.7071 and 70.0718	12.3031 and 8.922 and 10.0028 and 5.594 and 8.609	105.5 and 93.5975 and 67.3881 and 77.0075 and 77.9834	48.707 and 38.2511 and 45.3611 and 24.9024 and 42.2243	105.5 and 122.177 and 88.0908 and 73.4874 and 67.8761	81.0853 and 58.6749 and 68.6428 and 51.3383 and 65.994	62.8357% and 58.5114% and 61.2528%	87.7372% and 87.5805% and 85.7829%	55.4376% and 54.2347% and 53.6197%	79.9575% and 76.1954% and 74.7404%	43.6522% and 45.138% and 46.9951%	66.0951% and 69.0683% and 66.9419%	88.6147% and 85.2411% and 92.7295%	3300 nM	4200 nM	75.2061% and 69.0199% and 79.2231%	95.5665% and 93.8239% and 93.1905%	67.4512% and 61.3175% and 56.7459%	Cell Viability (%) (Maver-1; 3.13E-07 M): 94.477% and 92.288% and 91.2083%; Cell Viability (%) (Maver-1; 5.00E-06 M): 42.5652% and 49.5981% and 48.479%; Cell Viability (%) (Maver-1; 6.25E-07 M): 91.2247% and 87.9954% and 86.7647%; Cell Viability (%) (Maver-1; 7.81E-08 M): 97.0795% and 100.847% and 94.9725%
CC(C)(C)C=C(C#N)C(=O)N1CCCC(n2nc(-c3ccc(Oc4ccccc4)cc3)c3c(N)ncnc32)C1 (stereo not shown) [RC-Ctrl]	500 nM	7.067 and 3.271 and 5.661 and 1.305 and 2.339	100.163 and 86.7229 and 69.3512 and 65.5718 and 65.0973	19.6597 and 13.6262 and 19.5071 and 12.6093 and 12.5585	99.2136 and 96.6714 and 77.7744 and 79.5709 and 66.0125	73.5374 and 63.2161 and 57.9961 and 48.3526 and 44.7427	106.654 and 105.722 and 82.8418 and 81.5368 and 73.0798	93.8411 and 82.0283 and 73.1815 and 65.3176 and 60.962	64.9212% and 67.7956% and 65.2142%	72.1676% and 75.0045% and 70.0395%	62.0161% and 61.5033% and 61.0381%	62.4012% and 64.8258% and 70.1741%	55.6234% and 57.3306% and 56.4139%	64.669% and 69.1433% and 66.0679%	69.6595% and 74.2003% and 68.2948%	> 5000 nM	> 5000 nM	92.5899% and 86.5612% and 87.595%	103.384% and 106.186% and 101.772%	81.7599% and 80.9854% and 82.1702%	Cell Viability (%) (Maver-1; 3.13E-07 M): 99.5605% and 94.4048% and 98.8352%; Cell Viability (%) (Maver-1; 5.00E-06 M): 60.4937% and 62.4464% and 56.8706%; Cell Viability (%) (Maver-1; 6.25E-07 M): 97.5323% and 94.4409% and 89.8332%; Cell Viability (%) (Maver-1; 7.81E-08 M): 103.555% and 102.055% and 101.769%
CN(CC=CC(=O)N1CCCC(n2nc(-c3ccc(Oc4ccccc4)cc3)c3c(N)ncnc32)C1)CCCNC(=O)CNc1cccc2c1C(=O)N(C1CCC(=O)NC1=O)C2=O (stereo not shown) [IRC-1]	2700 nM	18.0378 and 23.8364 and 27.2416 and 22.4354 and 21.8906	95.6375 and 84.8576 and 100.21 and 79.6428 and 95.3845	77.6385 and 69.5439 and 88.1655 and 70.6919 and 85.8499	83.1063 and 84.2544 and 98.5173 and 96.2017 and 79.9735	95.365 and 106.398 and 86.1807 and 91.7653 and 81.4134	91.6096 and 88.3017 and 105.931 and 90.734 and 74.6225	76.0624 and 92.5825 and 94.7813 and 82.8144 and 77.7553	–	–	–	–	–	–	–	–	–	–	–	–	BTK degradation (in words) (C481S mutant BTK): much more effective degradation of the BTK C481S mutant than its wild-type; BTK quantification (anti-BTK / anti-β-actin) (BTK; 8 nM): 93.1337 and 89.8918; BTK quantification (anti-BTK / anti-β-actin) (BTK; 40 nM): 73.5656 and 73.5943; BTK quantification (anti-BTK / anti-β-actin) (BTK; 200 nM): 64.1549 and 63.4726
CN(CCCNC(=O)CNc1cccc2c1C(=O)N(C1CCC(=O)NC1=O)C2=O)CCCC(=O)N1CCCC(n2nc(-c3ccc(Oc4ccccc4)cc3)c3c(N)ncnc32)C1 (stereo not shown) [RNC-1]	4100 nM	–	–	–	–	–	–	–	–	–	–	–	–	–	–	–	–	–	–	–	Mino Cell Viability% (Mino cells; 1.00E-06 M): 58.0853% and 51.9026% and 45.6712% and 52.4594%; Mino Cell Viability% (Mino cells; 1.60E-09 M): 101.95% and 90.6294% and 68.165% and 98.7947% and 93.12%; Mino Cell Viability% (Mino cells; 2.00E-07 M): 37.8282% and 87.963% and 68.8682% and 84.564% and 91.6647%; Mino Cell Viability% (Mino cells; 3.20E-10 M): 102.731% and 88.3341% and 102.301% and 86.4979% and 82.7278%; Mino Cell Viability% (Mino cells; 4.00E-08 M): 90.0141% and 69.2003% and 110.3% and 97.7887% and 98.2185%; Mino Cell Viability% (Mino cells; 5.00E-06 M): 16.067% and 36.4022% and 19.085% and 31.8214% and 33.179%; Mino Cell Viability% (Mino cells; 8.00E-09 M): 96.0404% and 89.3401% and 104.098% and 90.522% and 101.012%; IC50 (Mino cells; Homo sapiens, Mino cells, 72 h, Alamar Blue): 1000 nM; MOLM-14 Cell Viability% (MOLM-14 cells; 1.00E-05 M): 22.564% and 21.8706% and 28.4317% and 19.6302% and 20.5903%; MOLM-14 Cell Viability% (MOLM-14 cells; 1.60E-08 M): 88.2112% and 80.7255% and 82.3435% and 80.6899% and 90.8606%; MOLM-14 Cell Viability% (MOLM-14 cells; 2.00E-06 M): 59.495% and 70.377% and 65.6472% and 60.4907% and 61.7354%; MOLM-14 Cell Viability% (MOLM-14 cells; 3.20E-09 M): 88.958% and 75.6935% and 86.6821% and 75.5334% and 84.3883%; MOLM-14 Cell Viability% (MOLM-14 cells; 4.00E-07 M): 78.8051% and 78.5206% and 78.325% and 79.1785% and 78.2717%; MOLM-14 Cell Viability% (MOLM-14 cells; 6.40E-10 M): 75.0356% and 77.596% and 87.8023% and 83.7127% and 80.761%; MOLM-14 Cell Viability% (MOLM-14 cells; 8.00E-08 M): 68.7056% and 84.1394% and 79.712% and 75.2134% and 77.276%; BTK quantification (anti-BTK / anti-β-actin) (BTK; 8 nM): 97.1575 and 95.3789; BTK quantification (anti-BTK / anti-β-actin) (BTK; 40 nM): 69.0679 and 73.2452; BTK quantification (anti-BTK / anti-β-actin) (BTK; 200 nM): 33.5661 and 27.9942
